Measurements: patent publication US20110250290A1, “DISINFECTANT COMPOSITIONS” (priority 2006, published 2011)

Legend:
[1] = test system: Pseudomonas syringae pv. phaseolicola HB-9 biofilm; test: PspHB-9 biofilm susceptibility to Oxysilver and copper sulfate
[2] = test system: Pseudomonas syringae pv. phaseolicola HB-9 planktonic; test: PspHB-9 planktonic susceptibility to Oxysilver and copper sulfate

With `O=S(=O)([O-])[O-].[Cu+2]` [Copper sulfate] the “Bacteria/biofilm growth PspHB-9 Biofilm, cell counts” value ([1]; 1250 ppm) was 5.15 log10, the “Bacteria/biofilm growth PspHB-9 Biofilm, cell counts” value ([1]; 2900 ppm) was 0 log10 and the “Bacteria/biofilm growth PspHB-9 Biofilm, cell counts” value ([1]; 4600 ppm) was 0 log10. The “concentration needed to be effective” value ([1]; planktonic and biofilm PspHB-9) was “at least 11460 ppm”, the “Bacteria growth PspHB-9 Planktonic, cell counts” value ([2]; 1250 ppm) was 2.95 log10 and the “Bacteria growth PspHB-9 Planktonic, cell counts” value ([2]; 2900 ppm) was 0 log10. For the same molecule, the “Bacteria growth PspHB-9 Planktonic, cell counts” value ([2]; 4600 ppm) was 0 log10.
